# Test results taken from ChEMBL document CHEMBL5365401, “Discovery of 5-((1H-indazol-3-yl) methylene)-2-thioxoimidazolidin-4-one derivatives as a new class of AHR agonists with anti-psoriasis activity in a mouse model” (Bioorg Med Chem Lett, 2023).
# Active and inactive are the calls of the source. No cut-off for these calls is given here.
# Tests used:
# [1] = biological target: T1, Aryl hydrocarbon receptor (Homo sapiens, UniProt P35869); assay: Agonist activity at AHR in human HepG2-Lucia AhR cells stably transfected with DRE by luciferase reporter assay; format: cell-based
# T1 sequence (P35869 whole entry): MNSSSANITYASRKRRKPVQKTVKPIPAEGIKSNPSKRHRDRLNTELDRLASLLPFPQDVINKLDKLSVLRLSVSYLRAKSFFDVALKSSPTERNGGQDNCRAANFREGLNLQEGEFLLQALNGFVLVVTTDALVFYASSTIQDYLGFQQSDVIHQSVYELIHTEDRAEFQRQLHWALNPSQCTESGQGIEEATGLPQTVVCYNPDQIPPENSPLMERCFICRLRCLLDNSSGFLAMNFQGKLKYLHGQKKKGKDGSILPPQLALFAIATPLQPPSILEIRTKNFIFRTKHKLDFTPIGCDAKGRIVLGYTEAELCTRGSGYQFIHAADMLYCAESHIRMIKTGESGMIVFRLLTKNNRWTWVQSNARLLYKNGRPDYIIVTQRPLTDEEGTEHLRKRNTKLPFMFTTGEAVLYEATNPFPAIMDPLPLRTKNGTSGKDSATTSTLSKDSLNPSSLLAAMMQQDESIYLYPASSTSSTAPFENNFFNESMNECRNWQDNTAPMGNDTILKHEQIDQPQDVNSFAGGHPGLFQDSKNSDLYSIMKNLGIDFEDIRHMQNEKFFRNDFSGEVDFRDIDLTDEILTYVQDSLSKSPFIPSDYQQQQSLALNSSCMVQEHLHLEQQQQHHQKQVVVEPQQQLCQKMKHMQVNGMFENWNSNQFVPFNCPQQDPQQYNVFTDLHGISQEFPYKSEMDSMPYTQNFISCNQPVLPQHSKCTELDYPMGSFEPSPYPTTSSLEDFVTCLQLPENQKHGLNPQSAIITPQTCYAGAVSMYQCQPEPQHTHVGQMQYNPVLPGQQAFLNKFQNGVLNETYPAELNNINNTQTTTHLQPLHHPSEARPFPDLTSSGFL
# Mus musculus = assay: Anti-psoriatic activity in imiquimod-induced BALB/c mouse model assessed as decrease in psoriasis-like skin lesion at 1 % administered topically; format: functional, organism-based; settings: Zone of skin, route top
# [2] = biological target: T1, Aryl hydrocarbon receptor; assay: Agonist activity at AHR in human HepG2 cells stably transfected with DRE assessed as increase in CYP1A1 mRNA expression by qPCR assay; format: cell-based; settings: dose 0.1-10 µM
# [3] = biological target: T1, Aryl hydrocarbon receptor; assay: Agonist activity at AHR in human HepG2 cells stably transfected with DRE assessed as increase in AHR nuclear translocation at 1 to 10 uM by Western blot analysis; format: cell-based; settings: dose 1-10 µM
SMILES,EC50 [1] [µM],other results
O=C1NC(=S)N/C1=C\c1c[nH]c2ccccc12,> 10,–
CN1C(=O)/C(=C/c2n[nH]c3ccccc23)NC1=S,0.049,–
CN1C(=O)/C(=C/c2cncnc2)NC1=S,> 10,–
CC#CCN1C(=O)/C(=C/c2n[nH]c3ccccc23)NC1=S,0.528,–
C#CCN1C(=O)/C(=C/c2n[nH]c3ccccc23)NC1=S,0.015,Activity (Mus musculus): Active; Activity [2]: Dose-Dependent Effect; Activity [3]: Dose-Dependent Effect
CC(C)N1C(=O)/C(=C/c2c[nH]c3ccccc23)NC1=S,10,–
COc1cccc(OC)c1C(=O)OCc1cc(=O)n2cc(Br)ccc2n1,5.9,–
CN1C(=O)/C(=C/c2csc3ccccc23)NC1=S,1.8,–
Cc1[nH]c2ccccc2c1/C=C1\NC(=S)N(C)C1=O,> 10,–
CCN1C(=O)/C(=C\c2c[nH]c3ccccc23)NC1=S,1.8,–

# Continued, in another order:
EC50 [1] [µM],SMILES,other results
2.8,Cc1cc(-c2nnc3sc(-c4ccccc4Br)nn23)[nH]n1,–
> 10,CN1C(=O)C(Cc2c[nH]c3ccccc23)NC1=S (stereo not given) [NECROSTATIN],–
0.219,CCN1C(=O)/C(=C/c2n[nH]c3ccccc23)NC1=S,–
2.5,CN1C(=S)NC(=O)/C1=C/c1n[nH]c2ccccc12,–
3.4,Cc1ccc([N+](=O)[O-])c2c1NC(c1ccc(Br)cc1)=NO2,–
> 10,O=C1NC(=O)/C(=C/c2c[nH]c3ccccc23)N1,–
0.143,CN1C(=O)/C(=C/c2c[nH]c3ccccc23)NC1=S,–
